Laboratory results: US9149038B2, “4-amino-6-(heterocyclic)picolinates and 6-amino-2-(heterocyclic)pyrimidine-4-carboxylates and their use as herbicides” (Dow AgroSciences LLC, priority 2013, dated 2015)
Like-named read-outs stand apart in the source and are kept apart here.

Assays:
[1] = system: Key Broadleaf Weed and Crop Species; experiment: Post-Emergent Test II: postemergent herbicidal activity, visual rating after 14 d (Table 7); type: in vivo; conditions: post-emergence, 336 h; for pest or weed control at 35 g/ha: 35 g ai/ha; for pest or weed control at 70 g/ha: 70 g ai/ha; for pest or weed control at 140 g/ha: 140 g ai/ha
In short: (§1)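 Plants were raised in a greenhouse for 7-21 d and treated once at the first or second true leaf stage. Compounds, dissolved in 97:3 acetone:DMSO then diluted into an aqueous acetone/isopropanol/crop oil/Triton X-155 carrier, were applied by overhead track sprayer at 187 L/ha. After 14 d with subirrigation, injury was scored visually from 0 (none) to 100 (complete kill).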

[2] = system: Key Grass and Sedge Weeds as well as Grass Crops; experiment: Post-Emergent Test II: postemergent herbicidal activity, visual rating after 14 d (Table 8); type: in vivo; conditions: post-emergence, 336 h; for pest or weed control at 35 g/ha: 35 g ai/ha; for pest or weed control at 70 g/ha: 70 g ai/ha; for pest or weed control at 140 g/ha: 140 g ai/ha
In short: as §1

[3] = lambsquarters (Chenopodium album), read-out: Visual Growth Reduction (%) 14 Days After Application CHEAL
[4] = oilseed rape, canola (Brassica napus), read-out: Visual Growth Reduction (%) 14 Days After Application BRSNN
[5] = sunflower (Helianthus annuus), read-out: Visual Growth Reduction (%) 14 Days After Application HELAN
[6] = velvetleaf (Abutilon theophrasti), read-out: Visual Growth Reduction (%) 14 Days After Application ABUTH
[7] = wild poinsettia (Euphorbia heterophylla), read-out: Visual Growth Reduction (%) 14 Days After Application EPHHL
[8] = barnyardgrass (Echinochloa crus-galli), read-out: Visual Growth Reduction (%) 14 Days After Application ECHCG
[9] = giant foxtail (Setaria faberi), read-out: Visual Growth Reduction (%) 14 Days After Application SETFA
[10] = maize, corn (Zea mays), read-out: Visual Growth Reduction (%) 14 Days After Application ZEAMX
[11] = rice (Oryza sativa), read-out: Visual Growth Reduction (%) 14 Days After Application ORYSA
[12] = wheat, spring (Triticum aestivum), read-out: Visual Growth Reduction (%) 14 Days After Application TRZAS
[13] = yellow nutsedge (Cyperus esculentus), read-out: Visual Growth Reduction (%) 14 Days After Application CYPES
[14] = ABUTH: velvetleaf (Abutilon theophrasti), read-out: Visual Growth Reduction (%) 14 Days After Application ABUTH
[15] = AMARE: redroot pigweed (Amaranthus retroflexus), read-out: Visual Growth Reduction (%) 14 Days After Application AMARE
[16] = BRSNN: oilseed rape, canola (Brassica napus), read-out: Visual Growth Reduction (%) 14 Days After Application BRSNN
[17] = CHEAL: lambsquarters (Chenopodium album), read-out: Visual Growth Reduction (%) 14 Days After Application CHEAL
[18] = EPHHL: wild poinsettia (Euphorbia heterophylla), read-out: Visual Growth Reduction (%) 14 Days After Application EPHHL
[19] = HELAN: sunflower (Helianthus annuus), read-out: Visual Growth Reduction (%) 14 Days After Application HELAN
[20] = barnyardgrass (Echinochloa crus-galli), read-out: Visual Growth Reduction (%) 14 Days After Application, ECHCG
[21] = giant foxtail (Setaria faberi), read-out: Visual Growth Reduction (%) 14 Days After Application, SETFA
[22] = maize, corn (Zea mays), read-out: Visual Growth Reduction (%) 14 Days After Application, ZEAMX
[23] = rice (Oryza sativa), read-out: Visual Growth Reduction (%) 14 Days After Application, ORYSA
[24] = wheat, spring (Triticum aestivum), read-out: Visual Growth Reduction (%) 14 Days After Application, TRZAS
[25] = yellow nutsedge (Cyperus esculentus), read-out: Visual Growth Reduction (%) 14 Days After Application, CYPES

Nc1c(F)c(-c2ccc3c(c2F)OC(F)(F)O3)nc(C(=O)O)c1Cl [Compound 11]
pest or weed control at 35 g/ha [1, 3]: 95 to 100% | pest or weed control at 70 g/ha [1, 3]: 95 to 100% | pest or weed control at 140 g/ha [1, 3]: 95 to 100% | pest or weed control at 35 g/ha [1, 4]: 85 to 94% | pest or weed control at 70 g/ha [1, 4]: 85 to 94% | pest or weed control at 140 g/ha [1, 4]: 85 to 94% | pest or weed control at 35 g/ha [1, 5]: 95 to 100% | pest or weed control at 70 g/ha [1, 5]: 95 to 100% | pest or weed control at 140 g/ha [1, 5]: 95 to 100% | pest or weed control at 35 g/ha [1, 6]: 85 to 94% | pest or weed control at 70 g/ha [1, 6]: 85 to 94% | pest or weed control at 140 g/ha [1, 6]: 95 to 100% | pest or weed control at 35 g/ha [1, 7]: 95 to 100% | pest or weed control at 70 g/ha [1, 7]: 95 to 100% | pest or weed control at 140 g/ha [1, 7]: 95 to 100% | pest or weed control at 35 g/ha [2, 8]: 85 to 94% | pest or weed control at 70 g/ha [2, 8]: 95 to 100% | pest or weed control at 140 g/ha [2, 8]: 95 to 100% | pest or weed control at 35 g/ha [2, 9]: 75 to 84% | pest or weed control at 70 g/ha [2, 9]: 85 to 94% | pest or weed control at 140 g/ha [2, 9]: 95 to 100% | pest or weed control at 35 g/ha [2, 10]: 60 to 74% | pest or weed control at 70 g/ha [2, 10]: 60 to 74% | pest or weed control at 140 g/ha [2, 10]: 75 to 84% | pest or weed control at 35 g/ha [2, 11]: 0 to 29% | pest or weed control at 70 g/ha [2, 11]: 0 to 29% | pest or weed control at 140 g/ha [2, 11]: 30 to 44% | pest or weed control at 35 g/ha [2, 12]: 60 to 74% | pest or weed control at 70 g/ha [2, 12]: 60 to 74% | pest or weed control at 140 g/ha [2, 12]: 75 to 84% | pest or weed control at 35 g/ha [2, 13]: 0 to 29% | pest or weed control at 70 g/ha [2, 13]: 95 to 100% | pest or weed control at 140 g/ha [2, 13]: 95 to 100%

Nc1c(F)c(-c2ccc(Cl)c3c2OC(F)(F)O3)nc(C(=O)O)c1Cl [Compound 82]
pest or weed control at 70 g/ha [1, 14]: 60 to 74% | pest or weed control at 140 g/ha [1, 14]: 75 to 84% | pest or weed control at 70 g/ha [1, 15]: 95 to 100% | pest or weed control at 140 g/ha [1, 15]: 95 to 100% | pest or weed control at 70 g/ha [1, 16]: 95 to 100% | pest or weed control at 140 g/ha [1, 16]: 95 to 100% | pest or weed control at 70 g/ha [1, 17]: 95 to 100% | pest or weed control at 140 g/ha [1, 17]: 95 to 100% | pest or weed control at 70 g/ha [1, 18]: 0 to 29% | pest or weed control at 140 g/ha [1, 18]: 0 to 29% | pest or weed control at 70 g/ha [1, 19]: 85 to 94% | pest or weed control at 140 g/ha [1, 19]: 95 to 100% | pest or weed control at 35 g/ha [1, 3]: 95 to 100% | pest or weed control at 35 g/ha [1, 4]: 95 to 100% | pest or weed control at 35 g/ha ([1]; redroot pigweed (Amaranthus retroflexus), read-out: Visual Growth Reduction (%) 14 Days After Application AMARE): 95 to 100% | pest or weed control at 35 g/ha [1, 5]: 85 to 94% | pest or weed control at 35 g/ha [1, 6]: 30 to 44% | pest or weed control at 35 g/ha [1, 7]: 0 to 29% | pest or weed control at 35 g/ha [2, 8]: 0 to 29% | pest or weed control at 70 g/ha [2, 20]: 0 to 29% | pest or weed control at 140 g/ha [2, 20]: 0 to 29% | pest or weed control at 35 g/ha [2, 9]: 0 to 29% | pest or weed control at 70 g/ha [2, 21]: 0 to 29% | pest or weed control at 140 g/ha [2, 21]: 0 to 29% | pest or weed control at 35 g/ha [2, 10]: 45 to 59% | pest or weed control at 70 g/ha [2, 22]: 60 to 74% | pest or weed control at 140 g/ha [2, 22]: 60 to 74% | pest or weed control at 35 g/ha [2, 11]: 0 to 29% | pest or weed control at 70 g/ha [2, 23]: 30 to 44% | pest or weed control at 140 g/ha [2, 23]: 30 to 44% | pest or weed control at 35 g/ha [2, 12]: 60 to 74% | pest or weed control at 70 g/ha [2, 24]: 60 to 74% | pest or weed control at 140 g/ha [2, 24]: 75 to 84% | pest or weed control at 35 g/ha [2, 13]: 0 to 29% | pest or weed control at 70 g/ha [2, 25]: 30 to 44% | pest or weed control at 140 g/ha [2, 25]: 45 to 59%
